How the values were obtained:
U-118-MG = test: Antiproliferative activity against human U-118-MG cells assessed as cell growth inhibition incubated for 72 hrs by MTT assay; assay type: functional, cell-based
[1] = Antiproliferative activity against human L02 cells assessed as cell growth inhibition incubated for 72 hrs by MTT assay; assay type: toxicity, cell-based
A549 = test: Antiproliferative activity against human A549 cells assessed as cell growth inhibition incubated for 72 hrs by MTT assay; assay type: functional, cell-based; settings: A549, 72 h
SH-SY5Y = test: Antiproliferative activity against human SH-SY5Y cells assessed as cell growth inhibition incubated for 72 hrs by MTT assay; assay type: functional, cell-based
CCRF-CEM = test: Antiproliferative activity against human CCRF-CEM cells assessed as cell growth inhibition incubated for 72 hrs by MTT assay; assay type: functional, cell-based
HCT-116 = test: Antiproliferative activity against human HCT-116 cells assessed as cell growth inhibition incubated for 72 hrs by MTT assay; assay type: functional, cell-based; settings: HCT-116, 72 h
HL-60 [2] = test: Antitumor activity against human HL-60 cells assessed as cell growth inhibition; assay type: functional, cell-based
[3] = Antitumor activity against PBMC cells (unknown origin) assessed as cell growth inhibition; assay type: functional, cell-based; settings: Homo sapiens
HL-60 [4] = test: Antiproliferative activity against human HL-60 cells assessed as cell growth inhibition incubated for 72 hrs by MTT assay; assay type: functional, cell-based; settings: HL-60, 72 h
[5] = Selectivity index, ratio of IC50 for human HL-60 cells to IC50 for human CCRF-CEM cells
[6] = Selectivity index, ratio of IC50 for human K562 cells to IC50 for human CCRF-CEM cells
K562 = test: Antiproliferative activity against human K562 cells assessed as cell growth inhibition incubated for 72 hrs by MTT assay; assay type: functional, cell-based; settings: K562, 72 h
[7] = Selectivity index, ratio of IC50 for human L02 cells to IC50 for human CCRF-CEM cells; assay type: toxicity; settings: L02 cells and CCRF-CEM cells, read-out: Selectivity Index
[8] = Antitumor activity against human L02 cells assessed as cell growth inhibition; assay type: toxicity, cell-based
Bel-7402 = test: Antitumor activity against human Bel-7402 cells assessed as cell growth inhibition; assay type: functional, cell-based

Compound | IC50 (U-118-MG) [µM] | IC50 at 72 h [1] [µM] | IC50 (A549) [µM] | IC50 (SH-SY5Y) [µM] | IC50 (CCRF-CEM) [µM] | IC50 (HCT-116) [µM] | IC50 (HL-60 [2]) [µM] | IC50 [3] [µM] | IC50 (HL-60 [4]) [µM] | Selectivity Index [5] | Selectivity Index [6] | IC50 (K562) [µM] | selectivity ratio [7] | IC50 [8] [µM] | IC50 (Bel-7402) [µM]
C[C@@H]1CC[C@@H]2[C@]34OO[C@](C)(CC[C@@H]13)O[C@H]4O[C@]2(C)COC(=O)CCc1ccc(N(CCCl)CCCl)cc1 | > 40 | > 40 | > 40 | > 40 | 8.81 | 20.8 |  |  |  |  |  |  |  |  | 
COC(=O)[C@H](Cc1ccc(N(CCCl)CCCl)cc1)NC(=O)CCC(=O)OCCCOCCCn1c2c(c3ccccc31)CCN1C(=O)c3ccccc3N(C)[C@H]21 |  |  |  |  |  |  | 0.5 | > 200 |  |  |  |  |  |  | 
Cc1cc(C(=O)OC[C@@]2(C)O[C@@H]3O[C@@]4(C)CC[C@H]5[C@H](C)CC[C@@H]2[C@@]35OO4)ccc1N(CCCl)CCCl | > 40 | 1.87 | 7.03 | > 40 | 0.55 | 4.22 |  |  | 2.97 | 0.63 | 3.18 | 0.589 | 3.37 |  | 
O=C(OCCCOc1ccc(-c2cc(=O)c3c(O)c(O)c(O)cc3o2)cc1)c1ccc(N(CCCl)CCCl)cc1 |  |  |  |  |  |  |  |  |  |  |  |  |  | > 50 | 
C[C@@H]1CC[C@H]2[C@@H](C)C(OC(=O)c3ccccc3N(CCCl)CCCl)O[C@@H]3O[C@@]4(C)CC[C@@H]1[C@]32OO4 (stereo not given in full) | > 40 | 8.24 | 8.22 | > 40 | 3.41 | 25.6 |  |  |  |  |  |  |  |  | 
C[C@@H]1CC[C@@H]2[C@]34OO[C@](C)(CC[C@@H]13)O[C@H]4O[C@]2(C)COC(=O)c1ccc(N(CCCl)CCCl)cc1 | > 40 | > 40 | 5.24 | > 40 | 4.51 | 7.96 |  |  |  |  |  |  |  |  | 
C[C@@H]1CC[C@H]2[C@@H](C)C(OC(=O)c3ccc(N(CCCl)CCCl)c(F)c3)O[C@@H]3O[C@@]4(C)CC[C@@H]1[C@]32OO4 (stereo not given in full) | > 40 | > 40 | 8.59 | > 40 | 24.7 | 4.19 |  |  |  |  |  |  |  |  | 
C[C@@H]1CC[C@H]2[C@@H](C)C(OC(=O)c3cccc(N(CCCl)CCCl)c3)O[C@@H]3O[C@@]4(C)CC[C@@H]1[C@]32OO4 (stereo not given in full) | > 40 | > 40 | 3.24 | > 40 | > 40 |  |  |  |  |  |  |  |  |  | 
C[C@@H]1CC[C@H]2[C@@H](C)C(OC(=O)CCc3ccc(N(CCCl)CCCl)cc3)O[C@@H]3O[C@@]4(C)CC[C@@H]1[C@]32OO4 (stereo not given in full) | > 40 | > 40 | > 40 | > 40 | 4.13 | 8.08 |  |  | 30.4 |  |  | 50.2 |  |  | 
Cc1cc(C(=O)OC2O[C@@H]3O[C@@]4(C)CC[C@H]5[C@H](C)CC[C@@H]([C@H]2C)[C@@]35OO4)ccc1N(CCCl)CCCl (stereo not given in full) | > 40 | 5 | 7.02 | > 40 | 1.87 | 6.72 |  |  |  |  |  |  |  |  | 
C=C1C(=O)[C@@]23C(=O)O[C@H]4CCC(C)(C)[C@H]5[C@H](O)OC[C@@]45[C@@H]2CC[C@@H]1[C@H]3OC(=O)c1ccc(N(CCCl)CCCl)cc1 |  |  |  |  |  |  |  |  |  |  |  |  |  | > 100 | 
C=C1C(=O)[C@]23[C@H](OC(=O)c4ccc(N(CCCl)CCCl)cc4)[C@H]1CC[C@H]2[C@@]12CO[C@@]3(O)[C@@H](O)[C@@H]1C(C)(C)CC[C@@H]2O |  |  |  |  |  |  |  |  |  |  |  |  |  | 4.03 | 0.5
C[C@@H]1CC[C@@H]2[C@]34OO[C@](C)(CC[C@@H]13)O[C@H]4O[C@]2(C)COC(=O)c1cccc(N(CCCl)CCCl)c1 | 22.1 | 32 | > 40 | > 40 | > 40 | 8.42 |  |  |  |  |  |  |  |  | 
C[C@@H]1CC[C@@H]2[C@]34OO[C@](C)(CC[C@@H]13)O[C@H]4O[C@]2(C)COC(=O)c1ccc(N(CCCl)CCCl)c(F)c1 | > 40 | > 40 | > 40 | > 40 | > 40 | > 40 |  |  |  |  |  |  |  |  | 
C[C@@H]1CC[C@@H]2[C@]34OO[C@](C)(CC[C@@H]13)O[C@H]4O[C@]2(C)COC(=O)c1ccccc1N(CCCl)CCCl | > 40 | 7.68 | 5.79 | 22.1 | 1.48 | 11.8 |  |  | 0.789 | 9.73 | 0.8 | 9.61 | 5.19 |  | 
C[C@@H]1CC[C@@H]2[C@]34OO[C@](C)(CC[C@@H]13)O[C@H]4O[C@]2(C)COC(=O)CCCc1ccc(N(CCCl)CCCl)cc1 | > 40 | > 40 | > 40 | > 40 | 25.3 | > 40 |  |  |  |  |  |  |  |  | 
COc1cccc2c1C(=O)c1c(O)c3c(c(O)c1C2=O)C[C@@](O)(C(=O)CO)C[C@@H]3O[C@H]1C[C@H](N)[C@H](O)[C@H](C)O1 [DOXORUBICIN] |  |  |  | 1.54 |  | 1.88 |  |  |  |  |  |  |  |  | 
C[C@H]1[C@@H](O)O[C@@H]2O[C@@]3(C)CC[C@H]4[C@H](C)CC[C@@H]1[C@@]24OO3 [ARTENIMOL] |  | 24.3 | > 40 | > 40 | 5.13 | > 40 |  |  | 61.2 |  |  | 21.8 |  |  | 
C[C@@H]1CC[C@H]2[C@@H](C)C(OC(=O)Cc3ccc(N(CCCl)CCCl)cc3)O[C@@H]3O[C@@]4(C)CC[C@@H]1[C@]32OO4 (stereo not given in full) | > 40 | 15.9 | 12.7 | > 40 | 1.57 | 5.89 |  |  | 11.2 |  |  | 15.5 |  |  | 
C[C@@H]1CC[C@@H]2[C@]34OO[C@](C)(CC[C@@H]13)O[C@H]4O[C@]2(C)COC(=O)Cc1ccc(N(CCCl)CCCl)cc1 | > 40 | > 40 | > 40 | > 40 | 3.84 | 40 |  |  | 20.9 |  |  | > 100 |  |  | 
C[C@@H]1CC[C@H]2[C@@H](C)C(OC(=O)CCCc3ccc(N(CCCl)CCCl)cc3)O[C@@H]3O[C@@]4(C)CC[C@@H]1[C@]32OO4 (stereo not given in full) | > 40 | > 40 | 14.9 | > 40 | 1.38 | 12.3 |  |  |  |  |  |  |  |  | 
O=C(O)CCCc1ccc(N(CCCl)CCCl)cc1 [CHLORAMBUCIL] | > 40 |  | > 40 | > 40 | 12 | > 40 |  |  | 34.4 | 24.1 | 1.05 | > 100 | 8.79 |  | 

From ChEMBL document CHEMBL5247590, “Novel nitrogen mustard-artemisinin hybrids with potent anti-leukemia action through DNA damage and activation of GPx” (Eur J Med Chem, 2022)
